The values that follow come from PubChem BioAssay AID328 (DTP/NCI, 2004).

The assay has as its system BDF1 mice, P388 leukemia ip, median survival T/C. Kind of assay: NCI In Vivo Anticancer Drug Screen. Data for tumor model P388 Leukemia (intraperitoneal) in B6D2F1 (BDF1) mice. To be noted: endpoint: median survival time, higher = longer survival. Put shortly:
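Survival ratio, drug arm over vehicle arm, in mice with a transplanted tumour.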

Setting [1] is: dose: 100.0 mg/kg/injection, schedule: Q01DX009 (ip), vehicle: saline with Tween-80.
[2] abbreviates: dose: 200.0 mg/kg/injection, schedule: Q01DX009 (ip), vehicle: saline with Tween-80.
The mark [3] stands for this setting: dose: 25.0 mg/kg/injection, schedule: Q01DX009 (ip), vehicle: saline with Tween-80.
Where [4] appears, read: dose: 25.0 mg/kg/injection, schedule: Q01DX001 (ip), vehicle: saline with Tween-80.
The mark [5] stands for this setting: dose: 50.0 mg/kg/injection, schedule: Q01DX001 (ip), vehicle: saline with Tween-80.

Values joined by “and” are separate entries in the source; they are usually repeats but may differ in a detail not shown here. Equal values may be shown once. Toxic doses and inconclusive results are not listed.

For `COc1cccc2c1C(=O)c1c(O)c3c(c(O)c1C2=O)CC(O)(C(C)=O)CC3OC1CC(N)C(O)C(C)O1` (centres undefined), the T/C was 118 % of control (dose: 0.03 mg/kg/injection, schedule: Q01DX010 (ip), vehicle: saline); 118 % of control (dose: 0.06 mg/kg/injection, schedule: Q01DX010 (ip), vehicle: saline); 118 % of control (dose: 0.12 mg/kg/injection, schedule: Q01DX010 (ip), vehicle: saline); 160 % of control (dose: 0.25 mg/kg/injection, schedule: Q01DX009 (ip), vehicle: water); 165 % of control and 175 % of control (dose: 0.25 mg/kg/injection, schedule: Q01DX010 (ip), vehicle: saline); 173 % of control (dose: 0.5 mg/kg/injection, schedule: Q01DX009 (ip), vehicle: water). Besides, the T/C is 180 % of control and 195 % of control (dose: 0.5 mg/kg/injection, schedule: Q01DX010 (ip), vehicle: saline); 182 % of control (dose: 1.0 mg/kg/injection, schedule: Q01DX009 (ip), vehicle: water); 230 % of control and 200 % of control (dose: 1.0 mg/kg/injection, schedule: Q01DX010 (ip), vehicle: saline); 210 % of control (dose: 2.0 mg/kg/injection, schedule: Q01DX009 (ip), vehicle: water); 155 % of control and 190 % of control and 220 % of control (dose: 2.0 mg/kg/injection, schedule: Q01DX010 (ip), vehicle: saline); 157 % of control (dose: 4.0 mg/kg/injection, schedule: Q01DX009 (ip), vehicle: water). Further, the T/C is, setting by setting: (dose: 4.0 mg/kg/injection, schedule: Q01DX010 (ip), vehicle: saline) 180 % of control; (dose: 7.5 mg/kg/injection, schedule: Q04DX003 (ip), vehicle: water) 104 % of control; (dose: 8.0 mg/kg/injection, schedule: Q01DX001 (ip), vehicle: saline) 150 % of control; (dose: 8.0 mg/kg/injection, schedule: Q01DX010 (ip), vehicle: saline) 90 % of control and 95 % of control; (dose: 15.0 mg/kg/injection, schedule: Q04DX003 (ip), vehicle: water) 119 % of control; (dose: 16.0 mg/kg/injection, schedule: Q01DX001 (ip), vehicle: saline) 90 % of control. The T/C (dose: 60.0 mg/kg/injection, schedule: Q04DX003 (ip), vehicle: water) was 167 % of control; the T/C (dose: 240.0 mg/kg/injection, schedule: Q04DX003 (ip), vehicle: water) is 93 % of control; the T/C (dose: 125.0 micrograms/kg/injection, schedule: Q01DX010 (ip), vehicle: saline) is 154 % of control; the T/C (dose: 250.0 micrograms/kg/injection, schedule: Q01DX010 (ip), vehicle: saline) is 159 % of control.

Turning to `COC(=O)/C=C1\Sc2ccc(C(F)(F)F)cc2NC1=O`, the T/C by setting is: (dose: 50.0 mg/kg/injection, schedule: Q01DX009 (ip), vehicle: saline with Tween-80) 91 % of control; under setting [1], 91 % of control; under setting [2], 91 % of control.

In the case of `CC(=O)Nc1ccc2nc3ccc(NC(C)=O)cc3[n+](-c3ccccc3)c2c1`, the T/C is, setting by setting: (dose: 31.3 mg/kg/injection, schedule: Q01DX010 (ip), vehicle: saline) 168 % of control; (dose: 62.5 mg/kg/injection, schedule: Q01DX010 (ip), vehicle: saline) 172 % of control; (dose: 125.0 mg/kg/injection, schedule: Q01DX010 (ip), vehicle: saline) 181 % of control; (dose: 250.0 mg/kg/injection, schedule: Q01DX010 (ip), vehicle: saline) 150 % of control.

As to `C1O[C@@H]1[C@@H]1CO1`, the T/C (dose: 100.0 mg/kg/injection, schedule: Q01DX006 (ip), vehicle: water) is 100 % of control; the T/C (dose: 100.0 mg/kg/injection, schedule: Q01DX010 (ip), vehicle: water) is 104 % of control and 120 % of control; the T/C (dose: 200.0 mg/kg/injection, schedule: Q01DX006 (ip), vehicle: water) was 100 % of control; the T/C (dose: 200.0 mg/kg/injection, schedule: Q01DX010 (ip), vehicle: water) was 150 % of control; the T/C (dose: 225.0 mg/kg/injection, schedule: Q01DX010 (ip), vehicle: water) was 113 % of control; the T/C (dose: 300.0 mg/kg/injection, schedule: Q01DX006 (ip), vehicle: water) was 100 % of control. For the same compound, the T/C reads like this: (dose: 300.0 mg/kg/injection, schedule: Q01DX010 (ip), vehicle: water) 100 % of control; (dose: 335.0 mg/kg/injection, schedule: Q01DX010 (ip), vehicle: water) 90 % of control; (dose: 400.0 mg/kg/injection, schedule: Q01DX006 (ip), vehicle: water) 100 % of control; (dose: 400.0 mg/kg/injection, schedule: Q01DX010 (ip), vehicle: water) 86 % of control and 95 % of control; (dose: 600.0 mg/kg/injection, schedule: Q01DX010 (ip), vehicle: water) 90 % of control.

`CCOC(=O)CS(=O)(=O)c1ccc(NC(C)=O)cc1`: the T/C runs as follows: (dose: 50.0 mg/kg/injection, schedule: Q01DX009 (ip), vehicle: Klucel (hydroxypropylcellulose) (HPC)) 104 % of control; (dose: 100.0 mg/kg/injection, schedule: Q01DX009 (ip), vehicle: Klucel (hydroxypropylcellulose) (HPC)) 91 % of control and 120 % of control; (dose: 200.0 mg/kg/injection, schedule: Q01DX009 (ip), vehicle: Klucel (hydroxypropylcellulose) (HPC)) 96 % of control and 115 % of control; (dose: 400.0 mg/kg/injection, schedule: Q01DX009 (ip), vehicle: Klucel (hydroxypropylcellulose) (HPC)) 105 % of control.

For `Cc1ccc(NCCNCC(C)(C)O)c2c(=O)c3ccccc3sc12`, the T/C (dose: 12.5 mg/kg/injection, schedule: Q04DX003 (ip), vehicle: saline) is 100 % of control; the T/C (dose: 25.0 mg/kg/injection, schedule: Q04DX003 (ip), vehicle: saline) was 120 % of control; the T/C (dose: 50.0 mg/kg/injection, schedule: Q04DX003 (ip), vehicle: saline) is 120 % of control; the T/C (dose: 75.0 mg/kg/injection, schedule: Q04DX003 (ip), vehicle: saline) was 100 % of control and 115 % of control and 118 % of control; the T/C (dose: 115.0 mg/kg/injection, schedule: Q04DX003 (ip), vehicle: saline) is 115 % of control and 120 % of control; the T/C (dose: 170.0 mg/kg/injection, schedule: Q04DX003 (ip), vehicle: saline) is 115 % of control and 122 % of control.

Take `Cc1nc[nH]c1[N+](=O)[O-]`: the T/C by setting is: under setting [3], 100 % of control; under setting [1], 86 % of control.

With `CCN(CC)P(Cl)(C1=C(Cl)C(=O)C(C#N)=C(C#N)C1=O)(N(CC)CC)N(CC)CC`, the T/C reads like this: under setting [4], 97 % of control; under setting [5], 95 % of control; (dose: 100.0 mg/kg/injection, schedule: Q01DX001 (ip), vehicle: saline with Tween-80) 95 % of control.

For the compound `BrCC[N+]12CC[N+](CCBr)(CC1)C2`, the T/C was 112 % of control (dose: 12.5 mg/kg/injection, schedule: Q01DX009 (ip), vehicle: saline with Tween-80); 105 % of control under setting [3]; 110 % of control (dose: 25.0 mg/kg/injection, schedule: Q04DX003 (ip), vehicle: water); 116 % of control (dose: 50.0 mg/kg/injection, schedule: Q04DX003 (ip), vehicle: water); 172 % of control (dose: 400.0 mg/kg/injection, schedule: Q04DX003 (ip), vehicle: water).

Consider `CC(C)/[N+]([O-])=C/C=C/c1ccccc1`, for which the T/C is, setting by setting: (dose: 100.0 mg/kg/injection, schedule: Q04DX003 (ip), vehicle: Klucel (hydroxypropylcellulose) (HPC)) 100 % of control; (dose: 200.0 mg/kg/injection, schedule: Q04DX003 (ip), vehicle: Klucel (hydroxypropylcellulose) (HPC)) 100 % of control; (dose: 400.0 mg/kg/injection, schedule: Q04DX003 (ip), vehicle: Klucel (hydroxypropylcellulose) (HPC)) 113 % of control.

For the compound `Cc1onc(-c2ccccc2)c1C(=O)N1CCCN2C(=O)c3ccccc3C21` (centres undefined), the T/C under setting [2] was 98 % of control.

For the compound `Nc1nc2c(ncn2C2OC(CO)C(O)C2O)c(=O)[nH]1` (centres undefined), where the note is “dose: 100.0 mg/kg/injection, schedule: Q04DX003 (ip), vehicle: saline with Tween-80”, the T/C is 157 % of control.

Regarding `CCOC1CCC(C(C)=O)C(C#N)(C#N)C1(C#N)C#N` (centres undefined), the T/C by setting is: (dose: 6.25 mg/kg/injection, schedule: Q01DX001 (ip), vehicle: saline with Tween-80) 108 % of control; (dose: 12.5 mg/kg/injection, schedule: Q01DX001 (ip), vehicle: saline with Tween-80) 123 % of control; under setting [4], 110 % of control and 119 % of control; under setting [5], 124 % of control.
